The values below come from PubChem BioAssay (NCI).

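Five concentrations, 48 hours, 96-well plates. Here, GI50 denotes the concentration required for 50% inhibition of growth. At the TGI there is no net growth.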

Test systems include CCRF-CEM leukemia; U251 CNS; HL-60(TB) leukemia; HCC-2998 colon; K-562 leukemia; NCI-H23 lung; SR leukemia; LOX IMVI melanoma; SK-MEL-2 melanoma; CAKI-1 renal.
What all share (assay): DTP human tumour cell line panel, 48 h

`Cc1cccc(NC(N)=S)c1`: the TGI in the test with CCRF-CEM leukemia, with U251 CNS, in the test on HL-60(TB) leukemia, in the test with HCC-2998 colon, in the test with K-562 leukemia and with NCI-H23 lung was > 100 µM in each case. In addition, the total growth inhibition concentration (TGI) in the test with SR leukemia, with LOX IMVI melanoma and in the test on SK-MEL-2 melanoma was > 100 µM throughout.

With `O=C(O)\C=C/C=C/C=C/C=C/C(=O)O`, the concentration for total growth inhibition (TGI) with CCRF-CEM leukemia, in the test with U251 CNS, in the test on HL-60(TB) leukemia, in the test on HCC-2998 colon, in the test with K-562 leukemia and with NCI-H23 lung was > 100 µM each time. Also, the total growth inhibition concentration (TGI) with CAKI-1 renal, in the test on SR leukemia, in the test with LOX IMVI melanoma and in the test with SK-MEL-2 melanoma was > 100 µM in each case.

As to `COc1ccc(C(=O)NNC(=O)c2nsc3ccccc23)cc1`, the TGI (commonly the concentration at which net growth stops) in the test with CCRF-CEM leukemia is > 100 µM; in the test with U251 CNS, > 100 µM; with HL-60(TB) leukemia it was 82.5 µM; in the test with HCC-2998 colon, > 100 µM; in the test on K-562 leukemia, > 100 µM; in the test on NCI-H23 lung, > 100 µM. Further, the TGI with LOX IMVI melanoma and in the test with SK-MEL-2 melanoma was > 100 µM in each case.

For `N=C(N)SC(c1ccccc1)c1ccccc1`, the total growth inhibition concentration (TGI) with CCRF-CEM leukemia amounted to 32.1 µM; in the test on U251 CNS, 29.4 µM; in the test on HL-60(TB) leukemia, 36.8 µM; with HCC-2998 colon, 20.1 µM; with K-562 leukemia, 85.3 µM; with NCI-H23 lung it was 28.3 µM. The TGI with CAKI-1 renal is 29.4 µM; in the test on SR leukemia it was > 100 µM; in the test with LOX IMVI melanoma it was 30.7 µM; in the test with SK-MEL-2 melanoma, 32 µM.

Consider `Cn1ncc2c(=O)[nH]c(-c3ccccc3)nc21`, for which the TGI with CCRF-CEM leukemia, with U251 CNS, in the test with HL-60(TB) leukemia, in the test with HCC-2998 colon, in the test on K-562 leukemia and in the test with NCI-H23 lung was > 100 µM each time. Moreover, the TGI with CAKI-1 renal, in the test on LOX IMVI melanoma and in the test with SK-MEL-2 melanoma was > 100 µM each time.

With `NS(=O)(=O)c1ccc(C(=O)O)cc1`, the total growth inhibition concentration (TGI) in the test on CCRF-CEM leukemia, in the test on U251 CNS, with HL-60(TB) leukemia, in the test with K-562 leukemia, with NCI-H23 lung and in the test with CAKI-1 renal was > 100 µM in each case. In addition, the total growth inhibition concentration (TGI) in the test with LOX IMVI melanoma and in the test with SK-MEL-2 melanoma was > 100 µM each time.

On to `COc1ccc2c(c1)C(=O)c1c-2n(CCCCl)c(=O)c2cc([N+](=O)[O-])ccc12`, for which the GI50 (in general, the concentration that inhibits growth by half) in the test with CCRF-CEM leukemia was < 0.01 µM; in the test on U251 CNS it was < 0.01 µM; in the test on HL-60(TB) leukemia, < 0.037 µM; with HCC-2998 colon, 0.996 µM; in the test on NCI-H23 lung it was 0.107 µM; with CAKI-1 renal, 0.242 µM. The GI50 with SR leukemia was < 0.0125 µM; in the test with LOX IMVI melanoma, < 0.01 µM; with SK-MEL-2 melanoma, 3.56 µM. Moreover, the TGI was 0.212 µM in the test on CCRF-CEM leukemia; 0.476 µM in the test on U251 CNS; 0.147 µM in the test on HL-60(TB) leukemia; > 28.6 µM in the test with HCC-2998 colon; > 100 µM with K-562 leukemia; 0.959 µM with CAKI-1 renal. Moreover, the results for the total growth inhibition concentration (TGI) in the test with LOX IMVI melanoma and in the test on SK-MEL-2 melanoma were 0.111 µM and > 95.6 µM, respectively.

For `CC(C)(c1ccccc1)c1ccc(Oc2ccc3c(c2)-c2nc-3nc3[nH]c(nc4nc(nc5[nH]c(n2)c2ccc(Oc6ccc(C(C)(C)c7ccccc7)cc6)cc52)-c2cc(Oc5ccc(C(C)(C)c6ccccc6)cc5)ccc2-4)c2ccc(Oc4ccc(C(C)(C)c5ccccc5)cc4)cc32)cc1`, the TGI in the test with CCRF-CEM leukemia, in the test on U251 CNS, in the test on HL-60(TB) leukemia, in the test with HCC-2998 colon, in the test with K-562 leukemia and in the test on NCI-H23 lung was > 100 µM throughout. For the same compound, the total growth inhibition concentration (TGI) in the test on LOX IMVI melanoma and in the test with SK-MEL-2 melanoma was > 100 µM throughout.

`Nc1ccc([As](=O)(O)O)cc1`: the TGI in the test with CCRF-CEM leukemia, in the test with U251 CNS, with HL-60(TB) leukemia, in the test on HCC-2998 colon, with K-562 leukemia and in the test on NCI-H23 lung was > 100 µM in each case. In addition, the TGI in the test on CAKI-1 renal, in the test with SR leukemia, with LOX IMVI melanoma and in the test on SK-MEL-2 melanoma was > 100 µM in each case.

In the case of `Cc1nc2ccccc2c(=O)n1Nc1ccc(C(=O)O)cc1`, the TGI with CCRF-CEM leukemia, with U251 CNS, with HL-60(TB) leukemia, with HCC-2998 colon, in the test with K-562 leukemia and with NCI-H23 lung was > 100 µM each time. The total growth inhibition concentration (TGI) in the test with CAKI-1 renal, in the test on LOX IMVI melanoma and in the test on SK-MEL-2 melanoma was > 100 µM each time.

Consider `COc1cc2c(cc1OCCCOc1cc3c(cc1OC)C(=O)N1CC(F)(F)C[C@H]1C=N3)N=C[C@@H]1CC(F)(F)CN1C2=O`, for which the TGI was found to be 1.06 µM in the test on CCRF-CEM leukemia; 11.4 µM in the test on U251 CNS; 2 µM with HL-60(TB) leukemia; 3.45 µM in the test with HCC-2998 colon; 4.81 µM in the test with K-562 leukemia; 9.86 µM in the test with NCI-H23 lung. Further, the TGI with CAKI-1 renal is 0.708 µM; with SR leukemia it was 0.508 µM; in the test on LOX IMVI melanoma, 2.65 µM; in the test with SK-MEL-2 melanoma it was 12.8 µM. Also, the 50% growth inhibitory concentration (GI50) in the test on U251 CNS was 0.166 µM; in the test with HL-60(TB) leukemia, 0.0984 µM; in the test on HCC-2998 colon it was 1.37 µM; in the test on K-562 leukemia, 0.601 µM; with NCI-H23 lung, 0.492 µM; in the test with CAKI-1 renal, 0.185 µM. In addition, the GI50 in the test with SR leukemia is < 0.0261 µM; in the test with LOX IMVI melanoma, 0.256 µM; in the test on SK-MEL-2 melanoma, 2.32 µM.

`O=C1CC(c2ccccc2)NCCCCN2CC(CN1)C(C(O)c1ccccc1)C2=O` (centres undefined): the concentration for total growth inhibition (TGI) in the test with CCRF-CEM leukemia, with U251 CNS, in the test on HL-60(TB) leukemia, in the test with HCC-2998 colon, in the test on NCI-H23 lung and in the test on CAKI-1 renal was > 100 µM each time. In addition, the total growth inhibition concentration (TGI) in the test on SR leukemia, with LOX IMVI melanoma and in the test with SK-MEL-2 melanoma was > 100 µM throughout.

Turning to `CC1(C)CCc2cc3c(cc2O1)OC(C)(C)CC3=O`, the TGI with CCRF-CEM leukemia, with U251 CNS, in the test on HL-60(TB) leukemia, in the test on K-562 leukemia, with NCI-H23 lung and in the test on CAKI-1 renal was > 100 µM each time. Besides, the total growth inhibition concentration (TGI) with SR leukemia, in the test on LOX IMVI melanoma and in the test with SK-MEL-2 melanoma was > 100 µM in each case.

In the case of `Cc1cc(N2CCCCC2)nc(NCc2cc(Nc3ccnc4cc(Cl)ccc34)ccc2F)n1`, the GI50 in the test with CCRF-CEM leukemia was 0.921 µM; in the test with U251 CNS, 1.71 µM; in the test with HL-60(TB) leukemia, 1.93 µM; in the test with K-562 leukemia it was 2.07 µM; in the test on NCI-H23 lung, 1.83 µM; with CAKI-1 renal, 1.74 µM. Further, the results for the GI50 in the test with SR leukemia, in the test with LOX IMVI melanoma and in the test on SK-MEL-2 melanoma were 1.94 µM, 1.73 µM and 1.89 µM, respectively. Besides, the concentration for total growth inhibition (TGI) is 4.33 µM in the test with CCRF-CEM leukemia; 3.15 µM in the test with U251 CNS; 3.97 µM in the test with HL-60(TB) leukemia; 5.17 µM in the test with K-562 leukemia; 4.92 µM with NCI-H23 lung; 3.32 µM in the test on CAKI-1 renal. Also, the TGI in the test on SR leukemia was determined as 4.99 µM; in the test on LOX IMVI melanoma, 3.29 µM; with SK-MEL-2 melanoma, 3.59 µM.

With `CCc1cc(C)cc2[n+]1CC=C2C`, the concentration for total growth inhibition (TGI) in the test on U251 CNS, in the test with HL-60(TB) leukemia, in the test with HCC-2998 colon, in the test on NCI-H23 lung, with CAKI-1 renal and in the test with LOX IMVI melanoma was > 100 µM throughout. The concentration for total growth inhibition (TGI) in the test on SK-MEL-2 melanoma was > 100 µM.

With `CC1(C)CCCC2(C)C3=C(CCC12)C(=O)OC3` (centres undefined), the TGI in the test on CCRF-CEM leukemia is > 100 µM; in the test with U251 CNS, > 100 µM; in the test on HL-60(TB) leukemia, 67.9 µM; with HCC-2998 colon, > 100 µM; in the test with NCI-H23 lung, > 100 µM; in the test with CAKI-1 renal, > 100 µM. For the same compound, the TGI with SR leukemia, with LOX IMVI melanoma and in the test with SK-MEL-2 melanoma was > 100 µM each time.

As to `CCCCCCCCCCCCCCC(C(=O)[O-])[n+]1ccccc1` (centres undefined), the TGI in the test on CCRF-CEM leukemia, in the test on U251 CNS, in the test with HL-60(TB) leukemia, in the test with HCC-2998 colon, in the test on K-562 leukemia and with NCI-H23 lung was > 100 µM each time. Besides, the concentration for total growth inhibition (TGI) in the test with CAKI-1 renal, in the test with SR leukemia, with LOX IMVI melanoma and with SK-MEL-2 melanoma was > 100 µM in each case.

With `CN(C)C=O.CN(C)C=O.CN1C(C(=O)Nc2ccccn2)=C([O-])c2ccccc2S1(=O)=O.CN1C(C(=O)Nc2ccccn2)=C([O-])c2ccccc2S1(=O)=O.[Cu+2]`, the TGI with U251 CNS is > 100 µM; with HL-60(TB) leukemia, > 100 µM; with HCC-2998 colon, > 100 µM; in the test on K-562 leukemia, > 100 µM; with NCI-H23 lung, 57 µM; in the test on SR leukemia, > 100 µM. Further, the TGI with LOX IMVI melanoma and in the test with SK-MEL-2 melanoma was > 100 µM throughout. Further, the GI50 with HCC-2998 colon and in the test with K-562 leukemia was > 100 µM each time.
